The assay deals with Menin-MLL (Homo sapiens (Human), UniProt O00255). As to the kind of experiment: Determination of binding constants (Ki) to Menin-MLL (HTRF). As to conditions: HTRF, 0.25 nM H-FL-Menin, 3.2 nM FITC-MLL-4-43, 24 hr incubation; for Ki: read-out: Menin-MLL Ki HTRF Assay: Ki. In general terms: In TR-FRET formats the signal depends on donor and acceptor labels being close together.

Structures are written as SMILES. Some results are limits rather than exact numbers.

Chain of Menin-MLL (O00255 whole entry): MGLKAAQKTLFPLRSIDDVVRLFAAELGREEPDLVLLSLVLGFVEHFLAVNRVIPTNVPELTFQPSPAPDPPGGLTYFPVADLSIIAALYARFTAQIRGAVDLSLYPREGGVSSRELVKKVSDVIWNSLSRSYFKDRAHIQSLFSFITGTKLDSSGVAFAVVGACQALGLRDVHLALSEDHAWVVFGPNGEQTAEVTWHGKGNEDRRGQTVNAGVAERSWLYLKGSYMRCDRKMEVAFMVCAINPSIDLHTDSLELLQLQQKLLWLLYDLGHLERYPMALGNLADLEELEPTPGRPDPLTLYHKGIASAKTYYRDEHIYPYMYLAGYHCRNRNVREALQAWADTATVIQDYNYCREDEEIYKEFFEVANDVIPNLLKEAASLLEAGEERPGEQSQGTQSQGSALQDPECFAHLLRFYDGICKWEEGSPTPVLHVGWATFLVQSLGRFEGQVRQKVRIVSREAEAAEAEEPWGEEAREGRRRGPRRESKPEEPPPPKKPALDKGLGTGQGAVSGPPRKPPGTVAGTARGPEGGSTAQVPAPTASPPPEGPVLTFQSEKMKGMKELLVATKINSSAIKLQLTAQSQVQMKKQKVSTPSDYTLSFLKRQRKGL

For `CCS(=O)(=O)N[C@@H]1CC[C@@H](CN2CCC3(CC2)CN(c2ncncc2Oc2ccc(F)cc2C(=O)N2[C@H](C)COC[C@@H]2C)C3)OC1` [Compound 24, N-((3R,6S)-6-((2-(5-(2-((3S,5R)-3,5-dimethylmorpholine-4-carbonyl)-4-fluorophenoxy)pyrimidin-4-yl)-2,7-diazaspiro[3.5]nonan-7-yl)methyl)tetrahydro-2H-pyran-3-yl)ethanesulfonamide], the 50% effective concentration (EC50) is less than 50 nM and the Ki was less than 1 nM. The matching figures for `CC(C)N(C(=O)c1cc(F)ccc1Oc1cncnc1N1CC2(CCN(C[C@@H]3CC[C@@H](NS(=O)(=O)N(C)C)CO3)CC2)C1)C(C)C` [Compound 77, 2-((4-(7-(((2S,5R)-5-((N,N-Dimethylsulfamoyl)amino)tetrahydro-2H-pyran-2-yl)methyl)-2,7-diazaspiro[3.5]nonan-2-yl)pyrimidin-5-yl)oxy)-5-fluoro-N,N-diisopropylbenzamide]: less than 50 nM and less than 1 nM. With `CC(C)N(C(=O)c1cc(F)ccc1Oc1cncnc1N1CC2(CCN(C[C@@H]3CC[C@@H](N[S@](=N)(=O)c4ccccc4)CO3)CC2)C1)C(C)C` (single isomer, unassigned) [Compound 230], the Ki was less than 1 nM. `CCS(=O)(=O)N[C@@H]1CC[C@@H](CN2CCC3(CC2)CN(c2ncncc2Oc2ccc(F)cc2C(=O)N(c2ccccc2)c2ccccc2)C3)OC1` [Compound 261] displayed an EC50 of less than 50 nM. Take `CCS(=O)(=O)N[C@@H]1CC[C@@H](CN2CCC3(CC2)CN(c2ncncc2Oc2ccc(F)cc2C(=O)N(C(C)C)[C@H]2[C@@H]4COC[C@@H]42)C3)OC1` [Compound 253, N-((1R,5S,6r)-3-c)-2-((4-(7-(((2S,5R)-5-(ethylsulfonamido)tetrahydro-2H-pyran-2-yl)methyl)-2,7-diazaspiro[3.5]nonan-2-yl)pyrimidin-5-yl)oxy)-5-fluoro-N-isopropylbenzamide]: the Ki was less than 1 nM. As for `COC[C@@H]1CCCN1S(=O)(=O)N[C@@H]1CC[C@@H](CN2CCC3(CC2)CN(c2ncncc2Oc2ccc(F)cc2C(=O)N(C(C)C)C(C)C)C3)OC1` [Compound 213, 5-Fluoro-N,N-diisopropyl-2-((4-(7-(((2S,5R)-5-(((S)-2-(methoxymethyl)pyrrolidine)-1-sulfonamido)tetrahydro-2H-pyran-2-yl)methyl)-2,7-diazaspiro[3.5]nonan-2-yl)pyrimidin-5-yl)oxy)benzamide], the Ki is less than 1 nM. For `CC(C)N(CC(F)(F)F)C(=O)c1cc(F)ccc1Oc1cncnc1N1CC2(CCN(C[C@@H]3CC[C@@H](NS(=O)(=O)N4CCOCC4)CO3)CC2)C1` [Compound 108, 5-Fluoro-N-isopropyl-2-((4-(7-(((2S,5R)-5-(morpholine-4-sulfonamido)tetrahydro-2H-pyran-2-yl)methyl)-2,7-diazaspiro[3.5]nonan-2-yl)pyrimidin-5-yl)oxy)-N-(2,2,2-trifluoroethyl)benzamide], the EC50 was less than 50 nM and the Ki is less than 1 nM.

As for `CC(C)S(=O)(=O)N[C@@H]1CC[C@@H](CN2CCC3(CC2)CN(c2ncncc2Oc2ccc(F)cc2C(=O)N2[C@H](C)COC[C@@H]2C)C3)OC1` [Compound 25, N-((3R,6S)-6-((2-(5-(2-((3S,5R)-3,5-dimethylmorpholine-4-carbonyl)-4-fluorophenoxy)pyrimidin-4-yl)-2,7-diazaspiro[3.5]nonan-7-yl)methyl)tetrahydro-2H-pyran-3-yl)propane-2-sulfonamide], the EC50 is less than 50 nM and the Ki was less than 1 nM. With `CC(C)N(CC(F)F)C(=O)c1cc(F)ccc1Oc1cncnc1N1CC2(CCN(C[C@@H]3CC[C@@H](NS(C)(=O)=O)CO3)CC2)C1` [Compound 96, N-(2,2-Difluoroethyl)-5-fluoro-N-isopropyl-2-((4-(7-(((2S,5R)-5-(methylsulfonamido)tetrahydro-2H-pyran-2-yl)methyl)-2,7-diazaspiro[3.5]nonan-2-yl)pyrimidin-5-yl)oxy)benzamide], the EC50 was less than 50 nM and the Ki is less than 1 nM. In the case of `CCNS(=O)(=O)N[C@@H]1CC[C@@H](CN2CCC3(CC2)CN(c2ncncc2Oc2ccc(F)cc2C(=O)N(C(C)C)[C@@H]2CCOC2)C3)OC1` [Compound 172, 2-((4-(7-(((2S,5R)-5-((N-ethylsulfamoyl)amino)tetrahydro-2H-pyran-2-yl)methyl)-2,7-diazaspiro[3.5]nonan-2-yl)pyrimidin-5-yl)oxy)-5-fluoro-N-isopropyl-N-((R)-tetrahydrofuran-3-yl)benzamide], the Ki was less than 1 nM.

Turning to `CCN(C(=O)c1cc(F)ccc1Oc1cncnc1N1CC2(CCN(C[C@@H]3CC[C@@H](NS(=O)(=O)c4cccc(Cl)c4)CO3)CC2)C1)C(C)C` [Compound 57, 2-((4-(7-(((2S,5R)-5-((3-Chlorophenyl)sulfonamido)tetrahydro-2H-pyran-2-yl)methyl)-2,7-diazaspiro[3.5]nonan-2-yl)pyrimidin-5-yl)oxy)-N-ethyl-5-fluoro-N-isopropylbenzamide], the EC50 was less than 50 nM and the Ki was less than 1 nM. On to `CCS(=O)(=O)N[C@@H]1CC[C@@H](CN2CCC3(CC2)CN(c2ncncc2Oc2ccc(F)cc2C(=O)N(C(C)C)C2CCOCC2)C3)OC1` [Compound 250, 2-((4-(7-(((2S,5R)-5-(Ethylsulfonamido)tetrahydro-2H-pyran-2-yl)methyl)-2,7-diazaspiro[3.5]nonan-2-yl)pyrimidin-5-yl)oxy)-5-fluoro-N-isopropyl-N-(tetrahydro-2H-pyran-4-yl)benzamide], for which the EC50 is less than 50 nM.

For the compound `CC(C)N(C(=O)c1cc(F)ccc1Oc1cncnc1N1CC2(CCN(C[C@@H]3CC[C@@H](NS(=O)(=O)C4COC4)CO3)CC2)C1)C1CC1` [Compound 22, N-cyclopropyl-5-fluoro-N-isopropyl-2-((4-(7-(((2S,5R)-5-(oxetane-3-sulfonamido)tetrahydro-2H-pyran-2-yl)methyl)-2,7-diazaspiro[3.5]nonan-2-yl)pyrimidin-5-yl)oxy)benzamide], the EC50 is less than 50 nM and the Ki was less than 1 nM.

On to `CC(C)N(C(=O)c1cc(F)ccc1Oc1cncnc1N1CC2(CCN(C[C@@H]3CC[C@@H](NS(=N)(=O)c4ccccc4)CO3)CC2)C1)C(C)C` (mixture of isomers) [Compound 228, 5-Fluoro-N,N-diisopropyl-2-((4-(7-(((2S,5R)-5-(phenylsulfonoamidimidamido)tetrahydro-2H-pyran-2-yl)methyl)-2,7-diazaspiro[3.5]nonan-2-yl)pyrimidin-5-yl)oxy)benzamide], for which the Ki was less than 1 nM. Still for that read-out and setting: as for `CCS(=O)(=O)N[C@@H]1CC[C@@H](CN2CCC3(CC2)CN(c2ncncc2Oc2ccc(F)cc2C(=O)N(C(C)C)C2CC4(COC4)C2)C3)OC1` [Compound 252, 2-((4-(7-(((2S,5R)-5-(Ethylsulfonamido)tetrahydro-2H-pyran-2-yl)methyl)-2,7-diazaspiro[3.5]nonan-2-yl)pyrimidin-5-yl)oxy)-5-fluoro-N-isopropyl-N-(2-oxaspiro[3.3]heptan-6-yl)benzamide], the figure is less than 1 nM; as for `CC(C)N(CC(F)F)C(=O)c1cc(F)ccc1Oc1cncnc1N1CC2(CCN(C[C@@H]3CC[C@@H](NS(=O)(=O)N4CC(OCc5ccccc5)C4)CO3)CC2)C1` [Compound 236, 2-((4-(7-(((2S,5R)-5-((3-(Benzyloxy)azetidine)-1-sulfonamido)tetrahydro-2H-pyran-2-yl)methyl)-2,7-diazaspiro[3.5]nonan-2-yl)pyrimidin-5-yl)oxy)-N-(2,2-difluoroethyl)-5-fluoro-N-isopropylbenzamide], less than 1 nM. Take `CC(C)N(C(=O)c1cc(F)ccc1Oc1cncnc1N1CC2(CCN(C[C@@H]3CC[C@@H](NS(=O)(=O)N4CCOCC4)CO3)CC2)C1)C1CC(F)(F)C1` [Compound 116, N-(3,3-Difluorocyclobutyl)-5-fluoro-N-isopropyl-2-((4-(7-(((2S,5R)-5-(morpholine-4-sulfonamido)tetrahydro-2H-pyran-2-yl)methyl)-2,7-diazaspiro[3.5]nonan-2-yl)pyrimidin-5-yl)oxy)benzamide]: the EC50 is less than 50 nM and the Ki is less than 1 nM.

On to `CCN(C(=O)c1cc(F)ccc1Oc1cncnc1N1CC2(CCN(C[C@@H]3CC[C@@H](NS(=O)(=O)C(C)C)CO3)CC2)C1)C(C)C` [Compound 3, N-ethyl-5-fluoro-N-isopropyl-2-((4-(7-(((2S,5R)-5-((1-methylethyl)sulfonamido)tetrahydro-2H-pyran-2-yl)methyl)-2,7-diazaspiro[3.5]nonan-2-yl)pyrimidin-5-yl)oxy)benzamide], for which the EC50 was less than 50 nM and the Ki was less than 1 nM. As for `C[C@@H]1COC[C@@H](C)N1C(=O)c1cc(F)ccc1Oc1cncnc1N1CC2(CCN(C[C@@H]3CC[C@@H](NS(=O)(=O)NCC(F)(F)F)CO3)CC2)C1` [Compound 157, {[(3R,6S)-6-{[2-(5-{2-[(3R,5R)-3,5-Dimethylmorpholine-4-carbonyl]-4-fluorophenoxy}pyrimidin-4-yl)-2,7-diazaspiro[3.5]nonan-7-yl]methyl}oxan-3-yl]sulfamoyl}(2,2,2-trifluoroethyl)amine], the Ki is less than 1 nM. Consider `CCN(C(=O)c1cc(F)ccc1Oc1cncnc1N1CC2(CCN(C[C@@H]3CC[C@@H](NS(=O)(=O)C4COC4)CO3)CC2)C1)C(C)C` [Compound 5, N-ethyl-5-fluoro-N-isopropyl-2-((4-(7-(((2S,5R)-5-(oxetane-3-sulfonamido)tetrahydro-2H-pyran-2-yl)methyl)-2,7-diazaspiro[3.5]nonan-2-yl)pyrimidin-5-yl)oxy)benzamide], for which the EC50 is less than 50 nM and the inhibition constant (Ki) is less than 1 nM.

For the compound `C[C@@H]1COC[C@@H](C)N1C(=O)c1cc(F)ccc1Oc1cncnc1N1CC2(CCN(C[C@@H]3CC[C@@H](NS(=O)(=O)NC4CC4)CO3)CC2)C1` [Compound 159, N-[(3R,6S)-6-{[2-(5-{2-[(3R,5R)-3,5-Dimethylmorpholine-4-carbonyl]-4-fluorophenoxy}pyrimidin-4-yl)-2,7-diazaspiro[3.5]nonan-7-yl]methyl}oxan-3-yl](cyclopropylamino)sulfonamide], the Ki is less than 1 nM.

Usually EC50 stands for the concentration that produces a half-maximal response. For orientation: Ki means the equilibrium dissociation constant of an inhibitor or competing ligand from its target.

The values are drawn from US11919901B2 (Syndax Pharmaceuticals, Inc., priority 2021, dated 2024).
